Results published in patent US20110059910A1, “Novel aromatic fluoroglycoside derivatives, pharmaceuticals comprising said compounds and the use thereof” (SANOFI-AVENTIS, priority 2008, published 2011).

Molecular target: T1, human sodium-dependent glucose transporter 1 (SGLT1, SLC5A1) (Homo sapiens, UniProt P13866)
T1 construct: Bases 11 to 2005 correspond to the complete coding region of human SGLT1; expressed in transfected cells
T1 sequence (P13866 1-664): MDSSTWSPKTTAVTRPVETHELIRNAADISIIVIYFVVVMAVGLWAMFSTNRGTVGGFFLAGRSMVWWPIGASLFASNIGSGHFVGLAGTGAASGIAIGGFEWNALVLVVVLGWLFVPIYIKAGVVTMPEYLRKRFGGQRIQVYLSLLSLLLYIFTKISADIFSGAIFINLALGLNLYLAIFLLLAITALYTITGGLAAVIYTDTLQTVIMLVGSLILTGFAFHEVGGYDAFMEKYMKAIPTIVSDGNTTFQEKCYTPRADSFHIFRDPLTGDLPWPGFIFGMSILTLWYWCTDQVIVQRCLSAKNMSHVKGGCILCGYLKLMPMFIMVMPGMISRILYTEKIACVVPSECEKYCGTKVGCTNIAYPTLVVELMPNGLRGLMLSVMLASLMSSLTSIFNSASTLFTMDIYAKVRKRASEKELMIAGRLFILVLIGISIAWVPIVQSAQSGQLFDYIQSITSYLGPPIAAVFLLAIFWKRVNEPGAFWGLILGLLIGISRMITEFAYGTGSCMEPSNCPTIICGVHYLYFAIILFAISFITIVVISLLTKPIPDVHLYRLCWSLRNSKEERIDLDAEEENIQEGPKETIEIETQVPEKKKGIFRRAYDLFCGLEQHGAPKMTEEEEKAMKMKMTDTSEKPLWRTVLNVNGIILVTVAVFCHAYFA
Experiment: Inhibition of the transport activity of human SGLT1 in vitro (α-MDG uptake in CHO-TRex-hSGLT1 cells)
Format: cell-based
Conditions: 50 μM α-MDG, 30 min at room temperature
Source text: Inhibition of the Transport Activity of the Human Sodium-Dependent Glucose Transporter 1 (SGLT1, SLC5A1) In Vitro:
1. Cloning of an Expression Vector for Human SGLT1
The cDNA for human SGLT1 was introduced into the pcDNA4/TO vector (Invitrogen) by means of standard methods of molecular biology as described in Sambrook et al. (Molecular Cloning, A Laboratory Manual, Second Edition). […] Bases 11 to 2005 correspond to the complete coding region of human SGLT1.
2. Production of a Recombinant Cell Line with Inducible Expression of Human SGLT1
The expression vector for human SGLT1 was introduced into CHO-TRex cells (Invitrogen) by means of FuGene6 lipofection (Roche). To select single cell clones, 600 μg/ml of Zeocin (Invitrogen) was added to the cell culture medium (nutrient mixture F-12 (Ham), Invitrogen) supplemented with 10% fetal calf serum (BD Biosciences), 10 μg/ml Blasticidin S(CN Biosciences), 100 units/ml penicillin, 100 units/ml streptomycin). The functionality of the single cell clones resulting from the selection was tested via their uptake activity for radiolabeled methyl-α-D-glucopyranoside. That cell clone with the highest uptake activity for methyl-α-D-glucopyranoside, referred to hereinafter as CHO-TRex-hSGLT1, was selected for the further experiments and cultured further in the presence of 600 μg/ml Zeocin.
3. Measurement of the Inhibiting Action of Test Substances on the Uptake of methyl-α-D-glucopyranoside (α-MDG)
CHO-TRex-hSGLT1 cells were seeded in cell culture medium in a concentration of 50 000 cells per well in Cytostar-T scintillating 96-well plates (Amersham Biosciences) and cultivated for 24 h. The expression of the recombinant human SGLT1 was induced by adding 1 μg/ml tetracycline for a further 24 h. For α-MDG uptake experiments, the cells were washed with PBS and then starved at 37° C. in starvation medium (PBS supplemented with 10% fetal calf serum) for 1 hour. After a further washing step with transport assay buffer (140 mM sodium chloride, 2 mM potassium chloride, 1 mM magnesium chloride, 1 mM calcium chloride, 10 mM HEPES/Tris, pH 7.5), the cells were incubated at room temperature either in the absence or presence of test substances of different concentration for 15 min. The test substances were diluted correspondingly in transport assay buffer proceeding from a 10 mM stock solution in dimethyl sulfoxide (40 μl/well). The assay was subsequently started by adding 10 μl of a mixture of radiolabeled methyl-α-D-[U-^14C]glucopyranoside (Amersham) and unlabeled methyl-α-D-glucopyranoside (Acros). The final concentration of methyl-α-D-glucopyranoside in the assay was 50 μM. After an incubation time of 30 min at room temperature, the reaction was stopped by adding 50 μl/well of 10 mM methyl-α-D-glucopyranoside in transport assay buffer (4° C.), and the radioactivity taken up into the cells was determined in a MicroBeta Scintillation Microplate Reader (Wallac).
The half-maximum inhibiting action of the test substances (IC50 value) was determined as follows: • 4. Determination of the value for 0% inhibition. This is the measurement in the absence of substance, measured in sodium-containing transport assay buffer. • 5. Determination of the value for 100% inhibition. This is the measurement in the absence of substance, measured in sodium-free transport assay buffer (140 mM choline chloride, 2 mM potassium chloride, 1 mM magnesium chloride, 1 mM calcium chloride, 10 mM HEPES/Tris, pH7.5). • 6. Calculation of the percentage inhibition values of those measurements which were carried out in the presence of different concentrations of test substance. From this, it was then possible to determine that concentration of the test substance which reduces the uptake of the methyl-α-D-glucopyranoside by 50% (IC50 value).

Row | IC50 [µM] | SMILES
1 | 8 | CCc1ccc(Cc2cc(C3OC(CO)C(F)(F)C(O)C3O)ccc2Cl)cc1 (centres unmarked) [Example 1]
2 | 8 | CCOc1ccc(Cc2cc(C3OC(CO)C(F)(F)C(O)C3O)ccc2Cl)cc1 (centres unmarked) [Example 2]
3 | 0.97 | CCc1ccc(Cc2cc(C3OC(CO)C(F)C(O)C3O)ccc2Cl)cc1 (centres unmarked) [Example 3]
4 | 0.174 | COc1ccc(Cc2cccc(C3OC(CO)C(F)C(O)C3O)c2)cc1 (centres unmarked) [Example 5]
5 | 0.475 | CCc1ccc(Cc2cc(C3OC(CO)C(F)C(O)C3O)ccc2Cl)s1 (centres unmarked) [Example 6]
6 | 1.3 | OCC1OC(c2ccc(Cl)c(Cc3cc4ccccc4s3)c2)C(O)C(O)C1F (centres unmarked) [Example 7]
7 | 6.6 | CCOC(=O)OCC1OC(c2ccc(F)c(Cc3ccc(OC)cc3)c2)C(O)C(O)C1F (centres unmarked) [Example 8]
8 | 3.6 | COc1ccc(Cc2cc(C3OC(CO)C(F)C(O)C3O)ccc2F)cc1 (centres unmarked) [Example 9]
9 | 13 | CCOC(=O)OCC1OC(c2ccc(F)c(Cc3ccc(OC)cc3)c2)C(O)C(O)C1(F)F (centres unmarked) [Example 10]
10 | 16 | COc1ccc(Cc2cc(C3OC(CO)C(F)(F)C(O)C3O)ccc2F)cc1 (centres unmarked) [Example 11]
11 | 1.5 | CCOC(=O)OCC1OC(c2ccc(OC)c(Cc3ccc(OC)cc3)c2)C(O)C(O)C1F (centres unmarked) [Example 12]
12 | 0.152 | COc1ccc(Cc2cc(C3OC(CO)C(F)C(O)C3O)ccc2OC)cc1 (centres unmarked) [Example 13]
13 | 0.611 | COc1ccc(Cc2cc(C3OC(CO)C(F)(F)C(O)C3O)ccc2OC)cc1 (centres unmarked) [Example 15]
14 | 25 | CCOC(=O)OCC1OC(c2ccc(Cl)c(Cc3ccc(OCC)cc3)c2)C(O)C(O)C1F (centres unmarked) [Example 16]
15 | 0.757 | CCOc1ccc(Cc2cc(C3OC(CO)C(F)C(O)C3O)ccc2Cl)cc1 (centres unmarked) [Example 17]
16 | 42 | CCOC(=O)OCC1OC(c2ccc(Cl)c(Cc3ccc(OCC)cc3)c2)C(O)C(O)C1(F)F (centres unmarked) [Example 18]
17 | 50 | CCOC(=O)OCC1OC(c2ccc(Cl)c(Cc3ccc(OC)cc3)c2)C(O)C(O)C1(F)F (centres unmarked) [Example 21]
18 | 1.4 | COc1ccc(Cc2cc(C3OC(CO)C(F)(F)C(O)C3O)ccc2Cl)cc1 (centres unmarked) [Example 22]
19 | 23 | CCOC(=O)OCC1OC(c2ccc(Cl)c(Cc3ccc(OC(F)(F)F)cc3)c2)C(O)C(O)C1F (centres unmarked) [Example 24]
20 | 3.5 | OCC1OC(c2ccc(Cl)c(Cc3ccc(OC(F)(F)F)cc3)c2)C(O)C(O)C1F (centres unmarked) [Example 25]
21 | > 10 | CCOC(=O)OCC1OC(c2ccc(Cl)c(Cc3ccc(OC(F)(F)F)cc3)c2)C(O)C(O)C1(F)F (centres unmarked) [Example 26]

Row | IC50 [µM] | SMILES
22 | 16 | OCC1OC(c2ccc(Cl)c(Cc3ccc(OC(F)(F)F)cc3)c2)C(O)C(O)C1(F)F (centres unmarked) [Example 27]
23 | 1.2 | OC[C@H]1O[C@@H](c2ccc(Cl)c(Cc3ccc(O)cc3)c2)[C@H](O)[C@@H](O)C1(F)F [Example 30]
24 | 12 | CC(C)Oc1ccc(Cc2cc([C@@H]3O[C@H](CO)C(F)(F)[C@H](O)[C@H]3O)ccc2Cl)cc1 [Example 31]
25 | 2.6 | Cc1ccc(C2OC(CO)C(F)(F)C(O)C2O)cc1Cc1ccc(O)cc1 (centres unmarked) [Example 33]
26 | 1.5 | COc1ccc(Cc2cc(C3OC(CO)C(F)(F)C(O)C3O)ccc2C)cc1 (centres unmarked) [Example 34]
27 | 4.3 | CCOC(=O)OCC1OC(c2ccc(Cl)c(Cc3ccc(OC)cn3)c2)C(O)C(O)C1F (centres unmarked) [Example 35]
28 | 2.7 | COc1ccc(Cc2cc(C3OC(CO)C(F)C(O)C3O)ccc2Cl)nc1 (centres unmarked) [Example 36]
29 | 23.4 | CCOC(=O)OCC1OC(c2ccc(Cl)c(Cc3ccc(OC)cn3)c2)C(O)C(O)C1(F)F (centres unmarked) [Example 37]
30 | 26.5 | COc1ccc(Cc2cc(C3OC(CO)C(F)(F)C(O)C3O)ccc2Cl)nc1 (centres unmarked) [Example 38]
31 | 22.8 | CCOC(=O)OC[C@H]1O[C@@H](c2ccc(OC(F)(F)F)c(Cc3ccc(OC)cc3)c2)[C@H](O)[C@@H](O)[C@@H]1F [Example 39]
32 | 0.232 | COc1ccc(Cc2cc([C@@H]3O[C@H](CO)[C@@H](F)[C@H](O)[C@H]3O)ccc2OC(F)(F)F)cc1 [Example 40]
33 | 11.8 | CCOC(=O)OC[C@H]1O[C@@H](c2ccc(OC(F)(F)F)c(Cc3ccc(OC)cc3)c2)[C@H](O)[C@@H](O)C1(F)F [Example 41]
34 | 3.3 | COc1ccc(Cc2cc([C@@H]3O[C@H](CO)C(F)(F)[C@H](O)[C@H]3O)ccc2OC(F)(F)F)cc1 [Example 42]
35 | 0.331 | OC[C@H]1O[C@@H](c2ccc(Cl)c(Cc3ccc(Cl)cc3)c2)[C@H](O)[C@@H](O)[C@@H]1F [Example 44]
36 | 2.6 | OC[C@H]1O[C@@H](c2ccc(Cl)c(Cc3ccc(Cl)cc3)c2)[C@H](O)[C@@H](O)C1(F)F [Example 46]
37 | 0.24 | COc1ccc(Cc2cc([C@@H]3O[C@H](CO)[C@@H](F)[C@H](O)[C@H]3O)ccc2C(F)(F)F)cc1 [Example 48]
38 | > 100 | CCOC(=O)OC[C@H]1O[C@@H](c2ccc(C(F)(F)F)c(Cc3ccc(OC)cc3)c2)[C@H](O)[C@@H](O)C1(F)F [Example 49]
39 | 7.3 | COc1ccc(Cc2cc([C@@H]3O[C@H](CO)C(F)(F)[C@H](O)[C@H]3O)ccc2C(F)(F)F)cc1 [Example 50]
40 | 0.18 | COc1ccc(Cc2cc(C3OC(CO)C(F)C(O)C3O)ccc2Br)cc1 (centres unmarked) [Example 56]
41 | 0.461 | CCc1ccc(Cc2cc(C3OC(CO)C(F)C(O)C3O)ccc2C)cc1 (centres unmarked) [Example 61]
